Reference: the NIST ThermoML archive (doi:10.1016/j.jct.2012.11.002)

Conditions: Liquid, Vibrating tube method

COC(=O)C(C)O (stereo not given) [methyl 2-hydroxypropanoate]
mass density [kg/m3]
Conditions	100 kPa	2500 kPa	5000 kPa	7500 kPa	10000 kPa	20000 kPa	30000 kPa	40000 kPa	50000 kPa	60000 kPa
283.15 K	1104.41	1106	1107.57	1109.14	1110.68	1116.59	1122.23	1127.45	1132.48	1137.4
288.15 K	1098.86	1100.48	1102.13	1103.77	1105.31	1111.55	1117.27	1122.78	1127.98	1132.78
293.15 K	1093.31	1094.99	1096.72	1098.35	1099.92	1106.2	1112.08	1117.65	1122.93	1128.01
298.15 K	1087.76	1089.42	1091.21	1092.88	1094.57	1101.03	1107.23	1112.83	1118.24	1123.43
303.15 K	1082.13	1083.92	1085.75	1087.5	1089.23	1095.82	1101.97	1107.9	1113.44	1118.66
308.15 K	1076.53	1078.32	1080.19	1082	1083.79	1090.68	1097.03	1102.99	1108.63	1114.02
313.15 K	1070.85	1072.76	1074.65	1076.52	1078.39	1085.28	1091.84	1097.99	1103.74	1109.24
318.15 K	1065.11	1067.04	1068.97	1070.94	1072.77	1080.09	1086.77	1093.08	1098.93	1104.49
323.15 K	1059.39	1061.4	1063.43	1065.44	1067.34	1074.67	1081.41	1088	1094.04	1099.76
328.15 K	1053.63	1055.7	1057.77	1059.74	1061.8	1069.41	1076.5	1083.15	1089.4	1095.07
333.15 K	1047.83	1049.97	1052.16	1054.23	1056.23	1064.05	1071.33	1078.01	1084.39	1090.37
338.15 K	1042	1044.15	1046.35	1048.52	1050.63	1058.63	1066.13	1073.12	1079.74	1085.76

CCOC(=O)C(C)O (racemic) [DL-ethyl lactate]
mass density [kg/m3]
Conditions	100 kPa	2500 kPa	5000 kPa	7500 kPa	10000 kPa	20000 kPa	30000 kPa	40000 kPa	50000 kPa	60000 kPa
283.15 K	1045.06	1046.77	1048.51	1050.24	1051.88	1058.39	1064.45	1070.13	1075.5	1080.55
288.15 K	1039.64	1041.39	1043.21	1044.99	1046.74	1053.28	1059.46	1065.24	1070.74	1076.04
293.15 K	1034.25	1036.05	1037.86	1039.7	1041.5	1048.3	1054.58	1060.54	1066.26	1071.55
298.15 K	1028.78	1030.66	1032.56	1034.43	1036.23	1043.21	1049.76	1055.69	1061.53	1066.96
303.15 K	1023.32	1025.21	1027.24	1029.11	1031	1038.26	1044.91	1051.19	1056.95	1062.52
308.15 K	1017.84	1019.82	1021.87	1023.84	1025.7	1033.08	1039.92	1046.28	1052.19	1057.98
313.15 K	1012.33	1014.31	1016.42	1018.41	1020.39	1027.93	1034.97	1041.52	1047.69	1053.46
318.15 K	1006.72	1008.86	1011.01	1013.1	1015.13	1022.87	1030.04	1036.74	1042.96	1048.96
323.15 K	1001.23	1003.36	1005.56	1007.68	1009.78	1017.76	1025.13	1031.99	1038.42	1044.49
328.15 K	995.54	997.8	1000.11	1002.34	1004.46	1012.65	1020.17	1027.16	1033.75	1039.99
333.15 K	989.91	992.19	994.55	996.87	999.06	1007.62	1015.4	1022.5	1029.24	1035.71
338.15 K	984.3	986.71	989.18	991.49	993.65	1002.34	1010.27	1017.75	1024.55	1031.04
